According to patent publication US20070238098A1, “Method and Kit for Predicting Adverse Side Effects of Paclitaxel Therapy” (priority 2003, published 2007):

Tested on: breast cancer patients
Test: clinical study of paclitaxel preoperative chemotherapy: adverse side effects graded by NCI-CTC
Assay type: in vivo, human
Conditions: 54 breast cancer patients, stage II or IIIa; 80 mg/m paclitaxel by intravenous infusion over 1 hour, once a week for 12 weeks
Experimental: 54 breast cancer patients were registered in a clinical study of paclitaxel preoperative chemotherapy. The following summarizes the criteria for patient selection. 1) Breast cancer patients age 70 or younger in stage II or IIIa as indicated by histopathological testing; and, 2) suitable physiological function (WBC >4,000 mm^3, platelet count […], hemoglobin level >10 g/dl, serum creatinine concentration <1.2 mg/dl, serum total bilirubin level <1.5 mg/dl, GOT/GPT <60/70). Patients who received proceeding chemotherapy or radiation therapy were excluded. Namely, all 54 patients who participated in this clinical study of paclitaxel preoperative chemotherapy were nearly at the same stage either clinically or histologically, and had no prior history of chemotherapy. […]
White blood cell count, red blood cell count, hemoglobin level and platelet count were measured weekly for each patient to evaluate the presence or absence of adverse side effects. Adverse side effects observed during the course of therapy were evaluated and graded based on the Common Toxicity Criteria of the US National Cancer Institute (NCI-CTC) (see Trotti, A., et al., Common toxicity criteria: version 2.0—an improved reference for grading the acute effects of cancer treatment: impact on radiotherapy, Int. J. Radiat. Oncol. Biol. Phys., 47: 13-47, 2000). […]

CC(=O)O[C@H]1C(=O)[C@@]2(C)[C@H]([C@H](OC(=O)c3ccccc3)[C@]3(O)C[C@H](OC(=O)[C@H](O)[C@@H](NC(=O)c4ccccc4)c4ccccc4)C(C)=C1C3(C)C)[C@]1(OC(C)=O)CO[C@@H]1C[C@@H]2O [paclitaxel]
granulocytopenia observed (most frequently observed adverse side effect; NCI-CTC grade 1 to 4): 24 patients
